According to patent US20240382446A1, “METHOD FOR IMPROVING FEED INTAKE” (OREXA B.V., priority 2021, published 2024):
Read-outs that look alike come from different tables or passages of the source.

Legend:
[1] = Weaning of mice with feed comprising various local anesthetics (body weight); type: in vivo
Experimental: Litters of mice are weaned on day 18 after birth. The siblings are divided over 2 groups (placebo and active) with group sizes of 7-10 siblings.
The pups are offered daily ad libitum food in which a local anesthetic is mixed. Body weight is measured daily.
In TABLES I-IV the body weight is depicted as percentage increase on day 14 in comparison to baseline, as a result of dosing lidocaine (comparative), prilocaine (comparative), bupivacaine (comparative) and benzocaine (according to the invention) to the mice. The baseline is the weight of the mouse at the beginning of the experiment. Placebo and experimental scores are statistically compared by means of student-t tests (* p<0,05; ** p<0,01; *** p<0,001). Doses are indicated on the x-axis and are mg per day for the group of siblings.

[2] = cited from earlier work
[3] = Weaning of piglets with feed comprising various amounts of benzocaine; type: in vivo
Experimental: Six groups of 21 piglets were treated.
They were fed with controlled amounts of feed (see table V).
Before administration, the food pellets were drenched in water for 30 min and benzocaine (0 g (3×), 5 g, 12,75 g or 17 g, corresponding to a dose of 0, 30, 75 and 100 mg per day per pig, respectively) was added and mixed. The group of piglets receiving feed with 0% benzocaine is referred to as the placebo group.
Amounts of feed consumed were recorded. Piglets were weighed on day 1 (baseline), 4, and 8.

[4] = benzocaine treated pigs vs placebo group
[5] = mice weaned day 18, anesthetic mixed in ad libitum food, day 14 vs baseline

For `CCOC(=O)c1ccc(N)cc1` [benzocaine], the “growth of the mice (body weight increase) in comparison to placebo” value ([1]; 200 mg per day for the group of siblings, day 14) is listed as “inhibits the growth”, the “growth of the mice (body weight increase) in comparison to placebo” value ([1]; low doses 25, 50 and 100 mg per day for the group of siblings, day 14) is listed as “increases the growth” and the solubility ([2]; dilute acids) is listed as “more soluble”. For the same molecule, the solubility ([2]; ethanol, chloroform, and ethyl ether) was “very soluble”, the solubility ([2]; water) was “sparingly soluble” and the fouling and diarrhea [3, 4] was “less fouling and less diarrhea”. The “general condition of the pigs” value [3, 4] was “better than that of the placebo group”, the “feed intake relative to placebo” value ([3]; piglets, after day 4, 30 mg and 75 mg benzocaine per day) was “increase feed intake” and the “growth of lightest vs heaviest 50% of the animals” value ([3]; piglets, day 7, group analysis vs placebo) was “increase of growth in the benzocaine-fed group primarily takes place with the light weight animals”. The “feed intake relative to placebo” value ([3]; piglets, first 3 days) was “initial reduction of the feed intake”, the optimal dose ([3]; piglets, per pig) was 75 mg per day and the “feed conversion (feed needed per weight gain)” value ([3]; piglets, with increasing benzocaine dosing, placebo about 12,8 kg feed per 1 kg) was 2,6 kg of feed per 1 kg of meat.
For `CCCNC(C)C(=O)Nc1ccccc1C` (stereo not drawn) [prilocaine], the “growth of the mice (body weight increase) in comparison to placebo” value [1, 5] was “either inactive (low dose) or inhibit the growth of the mice”.
With `CCN(CC)CC(=O)Nc1c(C)cccc1C` [Lidocaine, lidocaine] the “growth of the mice (body weight increase) in comparison to placebo” value [1, 5] was “either inactive (low dose) or inhibit the growth of the mice”.
With `CCCCN1CCCCC1C(=O)Nc1c(C)cccc1C` (stereo not drawn) [bupivacaine] the “growth of the mice (body weight increase) in comparison to placebo” value [1, 5] was “either inactive (low dose) or inhibit the growth of the mice”.
